Experimental data: patent US20170299609A1, “TREATMENT OF AMYOTROPHIC LATERAL SCLEROSIS WITH SK CHANNEL ACTIVATORS” (Wright State University, priority 2016, published 2017)

Experiments:
Assay type in all cases: in vivo
[1] = test system: G93A high expressor line of transgenic male ALS mice with a B6SJL background; assay: Rotarod motor function of transgenic ALS mice, CyPPA given at ALS onset P90 to P96 (Example 2); details: CyPPA 0.014 μg/kg daily IP for 7 days (P90-P96); 92 to 105 and 112 to 119 days of age; FIG. 4
Procedure: Because symptoms of ALS in the transgenic ALS mice emerge around P90, the effect of administering CyPPA at P90 was characterized. Without being bound by the theory, it is believed that administration of CyPPA in the transgenic ALS mice at ALS onset would correlate to beginning treatment in humans upon diagnosis of ALS. In this experiment, CyPPA (n=14) or vehicle solution (i.e., saline+11% DMSO; n=14) was administered to the transgenic ALS mice for seven (7) days (between ages P90 and P96) via daily IP injection. CyPPA was administered at a dose of 0.014 μg/kg.
(§1) In this experiment, the effect of CyPPA on survival of the transgenic ALS mice was assessed by determining when the transgenic ALS mice met end point criteria, i.e., full paralysis of both hind limbs and failing to right themselves 30 seconds after being turned on their backs. Additionally, the effect of CyPPA on motor function of the transgenic ALS mice was assessed by daily measuring from the age of P85 to the end stage using the rotarod machine. More specifically, the transgenic ALS mice were placed on a rotating rod for four minutes at a speed of 5 rotations per minute (i.e., RPM). The speed was increased to 25 RPM and the transgenic ALS mice were deemed unable to complete the task if they could complete only five percent (i.e., 12 seconds) of the task (i.e., the end stage).

[2] = test system: G93A high expressor line of transgenic male ALS mice with a B6SJL background; assay: Survival of transgenic ALS mice, CyPPA given P5 to P20 (Example 1); details: CyPPA 0.014 μg/kg daily IP for 16 days (P5-P20)
Procedure: (§2) Thus, the effect of SK channel activators on survival and motor function of the G93A high expressor line of transgenic male ALS mice with a B6SJL background (hereinafter, “transgenic ALS mice”) was characterized. The transgenic ALS mice carry a mutation of the superoxide dismutase 1 gene; as a result, the transgenic ALS mice develop a neurodegenerative disease which closely mimics ALS in humans. In this experiment, CyPPA (n=13) or vehicle solution (i.e., saline+11% DMSO, n=12) was administered early to the transgenic ALS mice for sixteen (16) days (between ages P5 and P20) via daily intraperitoneal (i.e., IP) injection. CyPPA was administered at a dose of 0.014 μg/kg in both experiments.
as §1, with “stage). Rotarod performance was assessed to detect onset of symptoms associated with the neurodegenerative disease mimicking ALS in humans in the transgenic ALS mice and/or to monitor disease progression in the transgenic ALS mice, such as, e.g., via characterizing the rate of loss of motor function.” for “stage).”

[3] = test system: G93A high expressor line of transgenic male ALS mice with a B6SJL background; assay: Rotarod motor function of transgenic ALS mice, CyPPA given P5 to P20 (Example 1); details: CyPPA 0.014 μg/kg daily IP for 16 days (P5-P20)
Procedure: as §2
as §1, with “stage). Rotarod performance was assessed to detect onset of symptoms associated with the neurodegenerative disease mimicking ALS in humans in the transgenic ALS mice and/or to monitor disease progression in the transgenic ALS mice, such as, e.g., via characterizing the rate of loss of motor function.” for “stage).”

Cc1cc(NC2CCCCC2)nc(-n2nc(C)cc2C)n1 [CyPPA]
average motor function (rotarod completion ratio) versus vehicle control [1]: significantly better | longer survival relative to control injected with vehicle solution [2]: 10 days | increase in mean survival over control injected with vehicle solution ([2]; p=0.0063): ~8% | mean survival ([2]; vehicle 125.76 days, p=0.0063): 135.72 days | time able to stay on the rotarod relative to vehicle control ([3]; 122 to 126 days of age, FIG. 3): significantly longer | able to complete the rotarod task longer than vehicle-injected mice ([3]; FIG. 2): 5 days | reduction of rate of decline in motor function relative to vehicle control ([3]; FIG. 3, p=0.0017): ~40% | slope of decline in motor function (rotarod percent complete vs days of age) ([3]; FIG. 3 line A, vehicle slope 0.0349): 0.0211
